Test results reported in ChEMBL document CHEMBL5154813 (Eur J Med Chem, 2022).
The source made the active and inactive calls. No cut-off for these calls is given here.

Experiments:
[1] = biological target: T1, Peroxisome proliferator-activated receptor (Homo sapiens) (UniProt P37231+Q07869+Q03181); test: Agonist activity at PPAR in oleic acid-induced steatosis in human HepaRG cells assessed as increase in HMGCS2 mRNA levels at 100 uM treated for 2 weeks with media replenishment along with compound and inducer for every 2 days by RT-qPCR analysis; type: cell-based; settings: filed as agonist
[2] = biological target: T1, Peroxisome proliferator-activated receptor (Homo sapiens); test: Agonist activity at PPAR in oleic acid-induced steatosis in human HepaRG cells assessed as increase in liver CPT1a mRNA levels at 100 uM treated for 2 weeks with media replenishment along with compound and inducer for every 2 days by RT-qPCR analysis; type: cell-based; settings: filed as agonist
[3] = biological target: T2, Peroxisome proliferator-activated receptor alpha (Homo sapiens, UniProt Q07869); test: Agonist activity at yeast Gal4-fused human PPARalpha LBD transfected in human HepG2 cells assessed as transactivation by measuring beta-galactosidase activity incubated for 20 hrs by luminometry; type: cell-based
T2 sequence (Q07869 whole entry): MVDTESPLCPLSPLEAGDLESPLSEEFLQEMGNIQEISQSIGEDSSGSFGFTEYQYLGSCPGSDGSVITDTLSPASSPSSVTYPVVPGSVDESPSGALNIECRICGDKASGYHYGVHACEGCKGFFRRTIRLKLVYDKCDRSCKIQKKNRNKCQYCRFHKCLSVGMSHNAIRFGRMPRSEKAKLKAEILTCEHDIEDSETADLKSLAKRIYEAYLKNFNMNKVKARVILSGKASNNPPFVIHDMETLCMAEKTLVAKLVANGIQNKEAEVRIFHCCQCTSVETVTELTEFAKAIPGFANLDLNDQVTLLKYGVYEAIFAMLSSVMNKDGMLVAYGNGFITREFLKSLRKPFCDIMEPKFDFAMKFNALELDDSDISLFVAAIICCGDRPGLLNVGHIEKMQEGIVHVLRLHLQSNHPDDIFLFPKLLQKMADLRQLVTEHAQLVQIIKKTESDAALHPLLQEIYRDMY

[4] = biological target: T3, Peroxisome proliferator-activated receptor alpha (Homo sapiens) (UniProt Q07869); test: Agonist activity at yeast Gal4-fused human PPARalpha LBD transfected in human HepG2 cells assessed as transactivation by measuring beta-galactosidase activity incubated for 20 hrs by luminometry relative to control; type: cell-based
T3 sequence (whole entry): T2 sequence (Q07869 whole entry)

[5] = biological target: T4, Peroxisome proliferator-activated receptor gamma (Homo sapiens, UniProt P37231); test: Agonist activity at yeast Gal4-fused human PPARgamma transfected in human HepG2 cells assessed as transactivation by measuring beta-galactosidase activity incubated for 20 hrs by luminometry; type: cell-based
T4 sequence (P37231 whole entry): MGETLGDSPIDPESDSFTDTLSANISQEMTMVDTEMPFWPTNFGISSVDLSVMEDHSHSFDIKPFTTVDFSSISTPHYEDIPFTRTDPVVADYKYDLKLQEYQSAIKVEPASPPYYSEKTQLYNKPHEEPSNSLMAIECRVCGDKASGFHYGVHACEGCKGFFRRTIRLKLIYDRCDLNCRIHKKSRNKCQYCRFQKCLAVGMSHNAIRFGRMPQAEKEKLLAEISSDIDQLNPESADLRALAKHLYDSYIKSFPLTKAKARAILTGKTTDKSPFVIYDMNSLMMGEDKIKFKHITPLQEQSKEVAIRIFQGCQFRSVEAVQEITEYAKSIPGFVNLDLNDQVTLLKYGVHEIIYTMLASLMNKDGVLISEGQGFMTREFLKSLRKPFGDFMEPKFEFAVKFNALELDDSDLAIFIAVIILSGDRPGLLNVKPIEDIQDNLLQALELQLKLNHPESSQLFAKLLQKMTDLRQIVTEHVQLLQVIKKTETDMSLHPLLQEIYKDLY

[6] = biological target: T5, Peroxisome proliferator-activated receptor delta (Homo sapiens, UniProt Q03181); test: Agonist activity at yeast Gal4-fused human PPARdelta transfected in human HepG2 cells assessed as transactivation by measuring beta-galactosidase activity incubated for 20 hrs by luminometry; type: cell-based
T5 sequence (Q03181 whole entry): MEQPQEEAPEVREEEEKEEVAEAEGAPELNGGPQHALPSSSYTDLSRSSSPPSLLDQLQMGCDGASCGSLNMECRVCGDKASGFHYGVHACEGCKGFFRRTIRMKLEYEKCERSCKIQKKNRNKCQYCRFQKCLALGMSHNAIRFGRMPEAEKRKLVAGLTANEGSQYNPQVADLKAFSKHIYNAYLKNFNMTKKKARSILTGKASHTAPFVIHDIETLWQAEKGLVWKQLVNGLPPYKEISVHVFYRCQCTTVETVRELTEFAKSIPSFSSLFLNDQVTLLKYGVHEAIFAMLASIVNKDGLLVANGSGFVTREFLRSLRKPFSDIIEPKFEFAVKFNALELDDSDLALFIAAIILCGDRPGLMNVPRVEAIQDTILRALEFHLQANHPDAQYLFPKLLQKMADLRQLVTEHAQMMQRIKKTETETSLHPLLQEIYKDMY

HepaRG [7] = test: Reduction of lipid accumulation in oleic acid-induced steatosis in human HepaRG cells at 100 uM treated for 24 hrs by spectrophotometry; type: functional, cell-based
HepaRG [8] = test: Reduction of lipid accumulation in oleic acid-induced steatosis in human HepaRG cells at 100 uM treated for 2 weeks with media replenishment along with compound and inducer for every 2 days by Oil Red O staining based microscopy; type: functional, cell-based
[9] = biological target: T1, Peroxisome proliferator-activated receptor (Homo sapiens); test: Agonist activity at PPAR in oleic acid-induced steatosis in human HepaRG cells assessed as increase in HMGCS2 mRNA levels at 100 uM treated for 24 hrs by RT-qPCR analysis; type: cell-based; settings: filed as agonist
[10] = biological target: T1, Peroxisome proliferator-activated receptor (Homo sapiens); test: Agonist activity at PPAR in oleic acid-induced steatosis in human HepaRG cells assessed as increase in FGF21 mRNA levels at 100 uM treated for 24 hrs by RT-qPCR analysis; type: cell-based; settings: filed as agonist
[11] = biological target: T1, Peroxisome proliferator-activated receptor (Homo sapiens); test: Agonist activity at PPAR in oleic acid-induced steatosis in human HepaRG cells assessed as increase in PDK4 mRNA levels at 100 uM treated for 24 hrs by RT-qPCR analysis; type: cell-based; settings: filed as agonist
[12] = biological target: T1, Peroxisome proliferator-activated receptor (Homo sapiens); test: Agonist activity at PPAR in oleic acid-induced steatosis in human HepaRG cells assessed as increase in FABP1 mRNA levels at 100 uM treated for 24 hrs by RT-qPCR analysis; type: cell-based; settings: filed as agonist
[13] = biological target: T1, Peroxisome proliferator-activated receptor (Homo sapiens); test: Agonist activity at PPAR in oleic acid-induced steatosis in human HepaRG cells assessed as increase in FGF21 mRNA levels at 100 uM treated for 2 weeks with media replenishment along with compound and inducer for every 2 days by RT-qPCR analysis; type: cell-based; settings: filed as agonist
[14] = biological target: T1, Peroxisome proliferator-activated receptor (Homo sapiens); test: Agonist activity at PPAR in oleic acid-induced steatosis in human HepaRG cells assessed as increase in FABP1 mRNA levels at 100 uM treated for 2 weeks with media replenishment along with compound and inducer for every 2 days by RT-qPCR analysis; type: cell-based; settings: filed as agonist
C2C12 [15] = test: Induction of 2-NBD-glucose uptake in mouse C2C12 cells at 25 uM incubated in starvation medium with replacement of fresh medium for every 24 hrs for 96 hrs followed by insulin stimulation for 30 mins followed by 2-NBD-glucose treatment for 3 hrs by flow cytometric analysis; type: functional, cell-based; settings: time 99.5 hrs
HepaRG [16] = test: Reduction of lipid accumulation in oleic acid-induced steatosis in human HepaRG cells at 100 uM treated for 24 hrs by Oil Red O staining based microscopy; type: functional, cell-based
HepaRG [17] = test: Reduction of lipid accumulation in oleic acid-induced steatosis in human HepaRG cells at 100 uM treated for 2 weeks with media replenishment along with compound and inducer for every 2 days by spectrophotometry; type: functional, cell-based
C2C12 [18] = test: Induction of 2-NBD-glucose uptake in mouse C2C12 cells at 25 uM incubated in starvation medium with replacement of fresh medium for every 24 hrs for 96 hrs followed by 2-NBD-glucose treatment for 3 hrs by flow cytometric analysis; type: functional, cell-based; settings: time 99.0 hrs
[19] = Permeability of compound in human Caco-2 cells; type: ADME, cell-based
HepaRG [20] = test: Reduction of lipid accumulation in oleic acid-induced steatosis in human HepaRG cells at 250 uM treated for 2 weeks with media replenishment along with compound and inducer for every 2 days by Oil Red O staining based microscopy; type: functional, cell-based
HepaRG [21] = test: Reduction of lipid accumulation in oleic acid-induced steatosis in human HepaRG cells at 250 uM treated for 2 weeks with media replenishment along with compound and inducer for every 2 days by spectrophotometry; type: functional, cell-based
HepaRG [22] = test: Reduction of lipid accumulation in oleic acid-induced steatosis in human HepaRG cells at 10 uM treated for 2 weeks with media replenishment along with compound and inducer for every 2 days by Oil Red O staining based microscopy; type: functional, cell-based
HepaRG [23] = test: Reduction of lipid accumulation in oleic acid-induced steatosis in human HepaRG cells at 10 uM treated for 2 weeks with media replenishment along with compound and inducer for every 2 days by spectrophotometry; type: functional, cell-based

EC50 [3] | Emax ([4]; filed as agonist) | EC50 [5] | Compound | further results
1600 nM | 108% | 8.4 µM | CC(C)(C)OC(=O)N[C@@H](CSCc1ccc(C(=O)c2ccccc2)cc1)C(=O)O | Activity [1]: Active; Activity [2]: Active; EC50 [6]: 28 µM; Activity (HepaRG [7]): Active; Activity (HepaRG [8]): Active; Activity [9]: Active; Activity [10]: Active; Activity [11]: Active; Activity [12]: Active; Activity [13]: Active; Activity [14]: Active; Activity (C2C12 [15]): Active; Activity (HepaRG [16]): Active; Activity (HepaRG [17]): Active; Activity (C2C12 [18]): Active; permeability [19]: Permeable
7200 nM | 100% | 13 µM | CC(C)(C)OC(=O)NC(COCc1ccc(-c2ccccc2)cc1)C(=O)O (stereo not given) | 
135 nM | 138% |  | O=C(NC(CSCc1ccc(-c2ccc(Cl)cc2)cc1)C(=O)O)OCc1ccccc1 (stereo not given) | 
800 nM | 94% | 10.2 µM | CC(C)(C)OC(=O)NC(CSCc1ccc(/C=C/C(=O)c2ccccc2)cc1)C(=O)O (stereo not given) | 
12100 nM | 49% | 20 µM | CC(C)(C)OC(=O)NC(COCc1ccc(C(=O)c2ccccc2)cc1)C(=O)O (stereo not given) | 
1600 nM | 83% | 10.3 µM | CC(C)(C)OC(=O)NC(CSCc1ccc(C(=O)c2ccccc2)cc1)C(=O)O (stereo not given) | EC50 [6]: 37.1 µM
710 nM | 108% | 3.9 µM | CC(C)(C)OC(=O)NC(CSCc1ccc(-c2ccccc2)cc1)C(=O)O (stereo not given) | 
250 nM | 77% | 2.2 µM | CC(C)(C)OC(=O)NC(CSCc1ccc(C(=O)c2ccc(C(F)(F)F)cc2)cc1)C(=O)O (stereo not given) | 
 |  |  | CC(C)OC(=O)C(C)(C)Oc1ccc(C(=O)c2ccc(Cl)cc2)cc1 | Activity (HepaRG [20]): Active; Activity (HepaRG [21]): Active
4800 nM | 103% | 12.8 µM | CC(C)(C)OC(=O)NC(CSCc1ccc(C(=O)c2ccc([N+](=O)[O-])cc2)cc1)C(=O)O (stereo not given) | 
 |  |  | CN(CCOc1ccc(CC2SC(=O)NC2=O)cc1)c1ccccn1 (stereo not given) | Activity (HepaRG [22]): Active; Activity (HepaRG [23]): Active
9100 nM | 48% |  | CC(SCc1ccccc1)C(NC(=O)c1ccccc1)C(=O)O (stereo not given) | 
380 nM | 99% | 7.5 µM | COc1ccc(C(=O)c2ccc(CSCC(NC(=O)OC(C)(C)C)C(=O)O)cc2)cc1 (stereo not given) | 
1450 nM | 118% | 25.7 µM | CC(C)(C)OC(=O)NC(CSCc1ccccc1)C(=O)O (stereo not given) | 
10000 nM | 52% |  | CC(C)(C)OC(=O)NC(COCc1ccc(Cc2ccccc2)cc1)C(=O)O (stereo not given) | 
580 nM | 64% | 3.4 µM | CC(C)(C)OC(=O)NC(CSCc1ccc(Cc2ccccc2)cc1)C(=O)O (stereo not given) | 
1900 nM | 90% | 7.9 µM | O=C(NC(CSCc1ccc(C(=O)c2ccccc2)cc1)C(=O)O)OCc1ccccc1 (stereo not given) | 
2550 nM | 148% | 10.9 µM | O=C(Cc1ccccc1)NC(CSCc1ccccc1)C(=O)O (stereo not given) | 
 |  |  | O=C(NC(CSCc1ccc(C(=O)c2ccccc2)cc1)C(=O)O)c1ccccc1 (stereo not given) | Emax [4]: 21%
940 nM | 89% | 4.6 µM | Cc1ccc(C(=O)c2ccc(CSCC(NC(=O)OC(C)(C)C)C(=O)O)cc2)cc1 (stereo not given) | 
370 nM | 95% | 3.2 µM | CC(C)(C)OC(=O)NC(CSCc1ccc(C(=O)c2ccc(Cl)cc2)cc1)C(=O)O (stereo not given) | 
16 nM | 165% |  | O=C(NC(CSCc1ccc(Cc2ccc(Cl)cc2)cc1)C(=O)O)OCc1ccccc1 (stereo not given) | 
